PubChem BioAssay AID1963872 (Molecular Pharmacology Branch, DTP, NCI, 2024)
pIC50: −log10 of the molar value.

Test system: KRAS patient-derived spheroids with HUVEC/MSC, viability
Test: Anticancer human tumor 519858-162-T-J1-PDC patient-derived colon adenocarcinoma cell line growth inhibition [KRAS2]
Conditions: for pIC50: curve of first compound; for viability, T/C: stronger effect = lower value
Method in brief: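 Combination screen of spheroid viability in tumor-cell co-cultures with endothelial (HUVEC) and mesenchymal stem cell stroma. Each agent was tested in half-log dilutions, topping at clinical Cmax or at 10 microM without a known Cmax.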

[1] = second compound 0.1 µM, first compound 0.01 µM
[2] = second compound 0.1 µM, first compound 0.0316 µM
[3] = second compound 0.1 µM, first compound 0.1 µM
[4] = second compound 0.1 µM, first compound 0.316 µM
[5] = second compound 0.1 µM, first compound 1 µM
[6] = second compound 0.1 µM, first compound 3.16 µM
[7] = second compound 0.316 µM, first compound 0.01 µM
[8] = second compound 0.316 µM, first compound 0.0316 µM
[9] = second compound 0.316 µM, first compound 0.1 µM
[10] = second compound 0.316 µM, first compound 0.316 µM
[11] = second compound 0.316 µM, first compound 1 µM
[12] = second compound 0.316 µM, first compound 3.16 µM
[13] = second compound 1 µM, first compound 0.01 µM
[14] = second compound 1 µM, first compound 0.0316 µM
[15] = second compound 1 µM, first compound 0.1 µM
[16] = second compound 1 µM, first compound 0.316 µM
[17] = second compound 1 µM, first compound 1 µM
[18] = second compound 1 µM, first compound 3.16 µM
[19] = second compound 3.16 µM, first compound 0.01 µM
[20] = second compound 3.16 µM, first compound 0.0316 µM
[21] = second compound 3.16 µM, first compound 0.1 µM
[22] = second compound 3.16 µM, first compound 0.316 µM
[23] = second compound 3.16 µM, first compound 1 µM
[24] = second compound 3.16 µM, first compound 3.16 µM
[25] = second compound 10 µM, first compound 0.01 µM
[26] = second compound 10 µM, first compound 0.0316 µM
[27] = second compound 10 µM, first compound 0.1 µM
[28] = second compound 10 µM, first compound 0.316 µM
[29] = second compound 10 µM, first compound 1 µM
[30] = second compound 10 µM, first compound 3.16 µM
[31] = second compound 0.1 µM, first compound 10 µM
[32] = second compound 0.316 µM, first compound 10 µM
[33] = second compound 1 µM, first compound 10 µM
[34] = second compound 3.16 µM, first compound 10 µM
[35] = second compound 10 µM, first compound 10 µM
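Note: compound exposure lasted seven days before readout.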
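Throughout, for viability, T/C: 100% = DMSO vehicle control viability.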

Row | SMILES | pIC50 (second compound 0.1 µM) | pIC50 (second compound 0.316 µM) | pIC50 (second compound 1 µM) | pIC50 (second compound 3.16 µM) | pIC50 (second compound 10 µM) | viability, T/C [2] | viability, T/C [3] | viability, T/C [4] | viability, T/C [5] | viability, T/C [6] | viability, T/C [8] | viability, T/C [9] | viability, T/C [10] | viability, T/C [11] | viability, T/C [14] | viability, T/C [15] | viability, T/C [20] | viability, T/C [21] | viability, T/C [26] | viability, T/C [27] | also measured
1 | CC(=O)OC12COC1CC(O)C1(C)C(=O)C(O)C3=C(C)C(OC(=O)C(O)C(NC(=O)OC(C)(C)C)c4ccccc4)CC(O)(C(OC(=O)c4ccccc4)C21)C3(C)C (stereo not given) + COc1cc2nc(C)nc(NC(C)c3cc(N)cc(C(F)(F)F)c3)c2cc1OC1CCOC1 | < 5.50 | < 5.50 | < 5.50 | < 5.50 | < 5.50 | 115% | 98.3% | 122% | 92% | 94.6% | 112% | 99% | 71.6% | 66.9% | 76.1% | 105% | 112% | 76.4% | 97.4% | 65% | viability, T/C [1]: 123%; viability, T/C [7]: 99%; viability, T/C [12]: 78.9%; viability, T/C [13]: 91.3%; viability, T/C [16]: 89.8%; viability, T/C [17]: 110%; viability, T/C [18]: 90.9%; viability, T/C [19]: 72%; viability, T/C [22]: 79.7%; viability, T/C [23]: 56.1%; viability, T/C [24]: 82.3%; viability, T/C [25]: 112%; viability, T/C [28]: 62.7%; viability, T/C [29]: 66.5%; viability, T/C [30]: 96.8%
2 | CN(C)C/C=C/C(=O)Nc1cc2c(Nc3ccc(F)c(Cl)c3)ncnc2cc1O[C@H]1CCOC1 + COc1cc2nc(C)nc(NC(C)c3cc(N)cc(C(F)(F)F)c3)c2cc1OC1CCOC1 | < 7.00 | < 7.00 | < 7.00 | 7.09 | < 7.00 | 78.7% | 81.2% |  |  |  | 90.8% | 98.9% |  |  | 95.5% | 91.2% | 75.5% | 44.5% | 70.3% | 62.3% | viability, T/C (second compound 0.1 µM, first compound 0.000316 µM): 87%; viability, T/C (second compound 0.1 µM, first compound 0.001 µM): 91.3%; viability, T/C (second compound 0.1 µM, first compound 0.00316 µM): 92.7%; viability, T/C [1]: 92.6%; viability, T/C (second compound 0.316 µM, first compound 0.000316 µM): 93%; viability, T/C (second compound 0.316 µM, first compound 0.001 µM): 73.7%; viability, T/C (second compound 0.316 µM, first compound 0.00316 µM): 73.4%; viability, T/C [7]: 73.5%; viability, T/C (second compound 1 µM, first compound 0.000316 µM): 138%; viability, T/C (second compound 1 µM, first compound 0.001 µM): 146%; viability, T/C (second compound 1 µM, first compound 0.00316 µM): 101%; viability, T/C [13]: 101%; viability, T/C (second compound 3.16 µM, first compound 0.000316 µM): 85.6%; viability, T/C (second compound 3.16 µM, first compound 0.001 µM): 80.7%; viability, T/C (second compound 3.16 µM, first compound 0.00316 µM): 90.3%; viability, T/C [19]: 88.3%; viability, T/C (second compound 10 µM, first compound 0.000316 µM): 73.2%; viability, T/C (second compound 10 µM, first compound 0.001 µM): 62.5%; viability, T/C (second compound 10 µM, first compound 0.00316 µM): 76.9%; viability, T/C [25]: 88.3%
3 | COC(=O)c1ccc2c(C(=Nc3ccc(N(C)C(=O)CN4CCN(C)CC4)cc3)c3ccccc3)c(O)[nH]c2c1 + COc1cc2nc(C)nc(NC(C)c3cc(N)cc(C(F)(F)F)c3)c2cc1OC1CCOC1 | < 5.00 | < 5.00 | < 5.00 | < 5.00 | 5.32 | 71.2% | 44.7% | 48.3% | 71.4% | 85.2% | 59.1% | 51.8% | 92% | 75.1% | 64.5% | 57.3% | 64.3% | 64.6% | 66.2% | 53.3% | viability, T/C [31]: 113%; viability, T/C [12]: 62.1%; viability, T/C [32]: 73.7%; viability, T/C [16]: 55.1%; viability, T/C [17]: 51.6%; viability, T/C [18]: 51%; viability, T/C [33]: 77.9%; viability, T/C [22]: 50.2%; viability, T/C [23]: 55.2%; viability, T/C [24]: 66.1%; viability, T/C [34]: 88.1%; viability, T/C [28]: 56.3%; viability, T/C [29]: 80.9%; viability, T/C [30]: 128%; viability, T/C [35]: 0.38%
4 | O=C(c1cc(Cc2n[nH]c(=O)c3ccccc23)ccc1F)N1CCN(C(=O)C2CC2)CC1 + COc1cc2nc(C)nc(NC(C)c3cc(N)cc(C(F)(F)F)c3)c2cc1OC1CCOC1 | < 5.00 | < 5.00 | < 5.00 | < 5.00 | < 5.00 | 68.1% | 98.2% | 98.6% | 111% | 91% | 75.1% | 90% | 89.9% | 80.2% | 73.3% | 108% | 78.1% | 89.7% | 117% | 85.1% | viability, T/C [31]: 97.4%; viability, T/C [12]: 102%; viability, T/C [32]: 99.1%; viability, T/C [16]: 89.9%; viability, T/C [17]: 83.7%; viability, T/C [18]: 112%; viability, T/C [33]: 72.6%; viability, T/C [22]: 75.6%; viability, T/C [23]: 80.8%; viability, T/C [24]: 79.6%; viability, T/C [34]: 66.8%; viability, T/C [28]: 96.2%; viability, T/C [29]: 53.4%; viability, T/C [30]: 67.1%; viability, T/C [35]: 109%
